Experimental data published in article PMC4775085 (ACS chemical neuroscience, 2015).
Several values for one entry are separate records, joined by “and”; a condition that tells them apart may be missing. Equal values may be shown once.

How the values were obtained:
HDAC6 = biological target: T1, HDAC6 (Homo sapiens, UniProt Q9UBN7); experiment: HDAC6 enzymatic inhibition assay; assay type: biochemical
T1 sequence (Q9UBN7 1-1215): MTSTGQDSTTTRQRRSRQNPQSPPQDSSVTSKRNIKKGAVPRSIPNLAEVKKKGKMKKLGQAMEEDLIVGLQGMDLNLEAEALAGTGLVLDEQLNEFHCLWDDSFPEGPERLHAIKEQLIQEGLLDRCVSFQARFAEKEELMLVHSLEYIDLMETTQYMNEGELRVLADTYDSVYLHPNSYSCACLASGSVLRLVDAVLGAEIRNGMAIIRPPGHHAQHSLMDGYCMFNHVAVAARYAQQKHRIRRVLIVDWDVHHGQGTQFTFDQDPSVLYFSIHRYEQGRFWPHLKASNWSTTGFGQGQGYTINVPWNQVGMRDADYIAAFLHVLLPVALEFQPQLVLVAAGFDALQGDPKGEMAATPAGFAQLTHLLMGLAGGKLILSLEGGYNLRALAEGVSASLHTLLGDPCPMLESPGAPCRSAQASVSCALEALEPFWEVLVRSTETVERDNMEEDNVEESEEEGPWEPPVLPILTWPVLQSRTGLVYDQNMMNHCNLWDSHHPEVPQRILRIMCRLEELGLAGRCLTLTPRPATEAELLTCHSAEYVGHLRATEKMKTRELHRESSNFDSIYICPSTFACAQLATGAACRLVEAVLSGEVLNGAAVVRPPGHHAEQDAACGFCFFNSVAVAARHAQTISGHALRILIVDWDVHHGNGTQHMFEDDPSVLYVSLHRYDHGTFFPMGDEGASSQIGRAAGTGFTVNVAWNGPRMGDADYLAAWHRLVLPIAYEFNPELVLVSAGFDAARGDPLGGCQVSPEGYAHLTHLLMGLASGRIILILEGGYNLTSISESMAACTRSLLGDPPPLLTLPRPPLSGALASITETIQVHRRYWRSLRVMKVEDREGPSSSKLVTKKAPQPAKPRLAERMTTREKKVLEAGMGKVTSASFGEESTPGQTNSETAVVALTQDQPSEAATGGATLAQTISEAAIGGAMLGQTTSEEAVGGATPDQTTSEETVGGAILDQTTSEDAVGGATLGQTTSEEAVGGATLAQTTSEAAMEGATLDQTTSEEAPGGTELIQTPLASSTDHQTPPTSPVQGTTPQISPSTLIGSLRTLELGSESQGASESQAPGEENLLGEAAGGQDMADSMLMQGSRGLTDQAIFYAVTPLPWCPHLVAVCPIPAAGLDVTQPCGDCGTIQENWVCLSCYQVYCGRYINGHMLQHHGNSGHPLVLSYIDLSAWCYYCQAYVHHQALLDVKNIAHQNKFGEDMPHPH

HDAC3 = HDAC3 (Homo sapiens, UniProt O15379); experiment: HDAC3 enzymatic inhibition assay
HDAC4 = HDAC4 (Homo sapiens, UniProt P56524); experiment: HDAC4 enzymatic inhibition assay
HDAC10 = biological target: T2, HDAC10 (Homo sapiens, UniProt Q969S8); experiment: HDAC10 enzymatic inhibition assay
T2 sequence (Q969S8 1-669): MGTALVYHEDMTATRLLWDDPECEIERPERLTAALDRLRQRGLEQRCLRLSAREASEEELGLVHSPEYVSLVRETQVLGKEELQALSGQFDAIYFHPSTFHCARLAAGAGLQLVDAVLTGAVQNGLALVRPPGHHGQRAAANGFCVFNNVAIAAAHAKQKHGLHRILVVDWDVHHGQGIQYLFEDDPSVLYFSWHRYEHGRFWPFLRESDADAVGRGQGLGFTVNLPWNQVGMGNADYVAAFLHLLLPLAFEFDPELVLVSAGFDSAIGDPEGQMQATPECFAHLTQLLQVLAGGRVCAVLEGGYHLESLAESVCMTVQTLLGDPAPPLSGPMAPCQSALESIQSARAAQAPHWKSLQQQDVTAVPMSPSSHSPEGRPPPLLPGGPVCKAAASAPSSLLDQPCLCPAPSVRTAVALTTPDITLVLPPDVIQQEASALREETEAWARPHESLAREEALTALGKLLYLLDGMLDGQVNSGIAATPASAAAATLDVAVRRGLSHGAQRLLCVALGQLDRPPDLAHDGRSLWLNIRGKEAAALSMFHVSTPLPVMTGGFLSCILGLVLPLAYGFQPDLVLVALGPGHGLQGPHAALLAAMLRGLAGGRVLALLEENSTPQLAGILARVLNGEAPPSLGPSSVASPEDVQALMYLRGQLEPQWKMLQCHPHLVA

Sequence of HDAC4 (P56524 whole entry): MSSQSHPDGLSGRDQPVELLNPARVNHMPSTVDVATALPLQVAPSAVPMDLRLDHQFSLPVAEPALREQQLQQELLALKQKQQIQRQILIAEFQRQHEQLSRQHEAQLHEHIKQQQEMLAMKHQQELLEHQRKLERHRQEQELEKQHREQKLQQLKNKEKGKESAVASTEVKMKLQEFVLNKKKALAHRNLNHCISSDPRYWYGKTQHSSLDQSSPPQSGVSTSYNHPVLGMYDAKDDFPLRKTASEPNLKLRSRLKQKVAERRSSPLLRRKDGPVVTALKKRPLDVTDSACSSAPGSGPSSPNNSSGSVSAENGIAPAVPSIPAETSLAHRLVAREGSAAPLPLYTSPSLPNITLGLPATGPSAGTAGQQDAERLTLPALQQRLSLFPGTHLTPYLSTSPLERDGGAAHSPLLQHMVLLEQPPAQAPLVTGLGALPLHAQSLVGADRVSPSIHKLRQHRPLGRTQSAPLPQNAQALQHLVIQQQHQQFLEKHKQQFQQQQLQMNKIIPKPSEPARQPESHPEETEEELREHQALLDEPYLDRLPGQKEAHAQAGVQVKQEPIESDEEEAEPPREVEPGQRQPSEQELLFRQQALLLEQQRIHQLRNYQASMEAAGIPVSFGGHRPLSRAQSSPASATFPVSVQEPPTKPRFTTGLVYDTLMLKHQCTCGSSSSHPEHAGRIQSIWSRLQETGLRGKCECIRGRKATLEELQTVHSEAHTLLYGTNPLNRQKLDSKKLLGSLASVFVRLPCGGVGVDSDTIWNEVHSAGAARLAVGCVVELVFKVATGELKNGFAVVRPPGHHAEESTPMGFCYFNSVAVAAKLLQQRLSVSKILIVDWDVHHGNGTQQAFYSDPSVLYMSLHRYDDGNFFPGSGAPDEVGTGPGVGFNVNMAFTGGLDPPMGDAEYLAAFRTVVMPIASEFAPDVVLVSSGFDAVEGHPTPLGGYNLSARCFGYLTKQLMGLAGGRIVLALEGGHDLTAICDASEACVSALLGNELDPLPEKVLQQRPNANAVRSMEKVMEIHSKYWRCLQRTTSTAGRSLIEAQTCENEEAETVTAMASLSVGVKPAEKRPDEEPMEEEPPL
Sequence of HDAC3 (O15379 whole entry): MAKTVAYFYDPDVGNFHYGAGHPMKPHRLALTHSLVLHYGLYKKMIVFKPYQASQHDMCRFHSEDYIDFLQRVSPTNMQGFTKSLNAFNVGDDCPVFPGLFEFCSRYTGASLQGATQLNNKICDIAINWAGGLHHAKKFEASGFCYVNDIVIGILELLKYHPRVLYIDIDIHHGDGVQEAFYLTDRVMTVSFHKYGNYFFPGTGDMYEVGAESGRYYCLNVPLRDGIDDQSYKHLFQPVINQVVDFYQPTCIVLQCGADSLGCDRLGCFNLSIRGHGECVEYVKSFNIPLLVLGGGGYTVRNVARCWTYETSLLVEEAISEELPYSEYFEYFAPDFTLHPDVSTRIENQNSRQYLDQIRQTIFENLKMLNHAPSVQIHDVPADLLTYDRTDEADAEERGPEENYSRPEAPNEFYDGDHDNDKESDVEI
Sequence of HDAC3 (Q9Y618 395-489 partner limits assumed): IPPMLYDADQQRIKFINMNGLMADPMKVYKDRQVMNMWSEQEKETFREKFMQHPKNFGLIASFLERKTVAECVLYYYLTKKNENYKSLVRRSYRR

IC50 (HDAC6; HDAC6 IC50, singlet 10-dose IC50 mode, 3-fold serial dilution starting at 1 μM): 3.12 nM
IC50 (HDAC6; IC50 (nM) HDAC6, mean of two experiments ± standard deviation, 10-point enzymatic assay starting from 30 μM, 3-fold serial dilution): 5 nM and 5.2 nM
Selectivity HDAC1/HDAC6 (HDAC6; ratio of HDAC1 and HDAC6 IC50 of Table 1 (fold)): 562
IC50 (HDAC3): 10000 nM
IC50 (HDAC4): 1460 nM
IC50 (HDAC10): 11800 nM
Structure (SMILES): Cc1nc2ccc(F)cc2n1Cc1ccc(C(=O)NO)cc1 [30a, 4-[(6-Fluoro-2-methyl-1-benzimidazolyl)methyl]-N-hydroxybenzamide]
